Patent US12503452B2 (Curza Global, LLC, priority 2019, dated 2025)

Experiments:
[1] = molecular target: Rabbit Reticulocyte Lysate (eukaryotic protein synthesis); assay: Rabbit reticulocyte lysate luciferase assay (inhibition of eukaryotic protein synthesis); format: biochemical; settings: class by IC50 or % inhibition @ 1 μM, read-out: Rabbit reticulocyte IC50 (μM/% inhib.)
Outline: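 Compounds were tested in 8-point 2-fold dilution series for blocking luciferase synthesis in nuclease-treated rabbit reticulocyte lysate (30° C., 90 minutes). Luminescence read-out, corrected by no-RNA background, was expressed as % inhibition against water-only reactions.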

P. aeruginosa (Pa) = assay: Broth microdilution minimum inhibitory concentration (MIC); format: cell-based; settings: Pseudomonas aeruginosa, P. aeruginosa; growth medium supplemented with sodium bicarbonate; read-out: Pa MIC + bicarb
Outline: (§1)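 Two-fold compound series, 8 points in triplicate; medium CAMHB ± NaHCO3 (6.25 or 25 mM final) or ± 0–50% heat-inactivated human serum; inoculum 5×10^4 CFU/well; growth-method 0.5 McFarland suspensions; modified CLSI M07-A9.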

S. aureus (Sa) = assay: as above; format: cell-based; settings: Staphylococcus aureus, S. aureus; growth medium supplemented with sodium bicarbonate; read-out: Sa + bicarb MIC
Outline: as §1

E. faecalis (Ef) = assay: as above; format: cell-based; settings: Enterococcus faecalis, E. faecalis; growth medium supplemented with sodium bicarbonate; read-out: Ef + bicarb MIC
Outline: as §1

A. baumannii (Ab) = assay: as above; format: cell-based; settings: Acinetobacter baumannii; A. baumannii; growth medium supplemented with sodium bicarbonate; read-out: Ab + bicarb MIC
Outline: as §1

E. coli (Ec) = assay: as above; format: cell-based; settings: Escherichia coli, E. coli; growth medium supplemented with sodium bicarbonate; read-out: E. coli + bicarb MIC
Outline: as §1

[2] = system: E. coli S30 extract (bacterial protein synthesis); assay: E. coli S30 extract coupled transcription-translation luciferase assay (inhibition of bacterial protein synthesis); format: biochemical; settings: class by IC50 or % inhibition @ 1 μM, read-out: S30 IC50 (μM/% inhib.)
Outline: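 Luminescent read-out of luciferase made from pBESTluc DNA by E. coli S30 extract after 1 h at 37 °C with compound in an 8-point 2-fold series. Background came from no-DNA reactions. Percent inhibition was calculated against water-only controls.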

CC(C)(N)C(=O)N1CCN(C(=O)Nc2ccn(-c3ccc(CNCC4CNC4)cc3)c(=O)n2)CC1 [Compound 112]
IC50 [1]: > 1 µM
MIC (P. aeruginosa (Pa)): > 32 µg/mL
MIC (S. aureus (Sa)): 8 to 32 µg/mL
MIC (E. faecalis (Ef)): > 32 µg/mL
MIC (A. baumannii (Ab)): > 32 µg/mL
MIC (E. coli (Ec)): 8 to 32 µg/mL
IC50 [2]: < 0.5 µM

CC(C)(N)C(=O)N1CCN(C(=O)Nc2ccn(-c3ccc(CN[C@@H]4CC[C@H](N)C4)cc3)c(=O)n2)CC1 [Compound 114]
IC50 [1]: > 1 µM
MIC (P. aeruginosa (Pa)): > 32 µg/mL
MIC (S. aureus (Sa)): > 32 µg/mL
MIC (E. faecalis (Ef)): > 32 µg/mL
MIC (A. baumannii (Ab)): > 32 µg/mL
MIC (E. coli (Ec)): < 8 µg/mL
IC50 [2]: < 0.5 µM

CN(Cc1ccc(-n2ccc(NC(=O)N3CCN(C(=O)C(C)(C)N)CC3)nc2=O)cc1)[C@@H]1CC[C@H](N)C1 [Compound 115]
IC50 [1]: > 1 µM
MIC (P. aeruginosa (Pa)): > 32 µg/mL
MIC (S. aureus (Sa)): < 8 µg/mL
MIC (E. faecalis (Ef)): 8 to 32 µg/mL
MIC (A. baumannii (Ab)): > 32 µg/mL
MIC (E. coli (Ec)): < 8 µg/mL
IC50 [2]: < 0.5 µM

CCN(Cc1ccc(-n2ccc(NC(=O)N3CCN(C(=O)C(C)(C)N)CC3)nc2=O)cc1)[C@@H]1CC[C@H](N)C1 [Compound 116]
IC50 [1]: > 1 µM
MIC (P. aeruginosa (Pa)): > 32 µg/mL
MIC (S. aureus (Sa)): 8 to 32 µg/mL
MIC (E. faecalis (Ef)): 8 to 32 µg/mL
MIC (A. baumannii (Ab)): > 32 µg/mL
MIC (E. coli (Ec)): < 8 µg/mL
IC50 [2]: < 0.5 µM

CC(C)(N)C(=O)N1CCN(C(=O)Nc2ccn(-c3ccc(CN[C@H]4CC[C@H](N)CC4)cc3)c(=O)n2)CC1 [Compound 117]
IC50 [1]: > 1 µM
MIC (P. aeruginosa (Pa)): > 32 µg/mL
MIC (S. aureus (Sa)): < 8 µg/mL
MIC (E. faecalis (Ef)): < 8 µg/mL
MIC (A. baumannii (Ab)): > 32 µg/mL
MIC (E. coli (Ec)): < 8 µg/mL
IC50 [2]: < 0.5 µM

CN(Cc1ccc(-n2ccc(NC(=O)N3CCN(C(=O)C(C)(C)N)CC3)nc2=O)cc1)[C@H]1CC[C@H](N)CC1 [Compound 118]
IC50 [1]: > 1 µM
MIC (P. aeruginosa (Pa)): 8 to 32 µg/mL
MIC (S. aureus (Sa)): < 8 µg/mL
MIC (E. faecalis (Ef)): < 8 µg/mL
MIC (A. baumannii (Ab)): 8 to 32 µg/mL
MIC (E. coli (Ec)): < 8 µg/mL
IC50 [2]: < 0.5 µM

CCN(Cc1ccc(-n2ccc(NC(=O)N3CCN(C(=O)C(C)(C)N)CC3)nc2=O)cc1)[C@H]1CC[C@H](N)CC1 [Compound 119]
IC50 [1]: > 1 µM
MIC (P. aeruginosa (Pa)): < 8 µg/mL
MIC (S. aureus (Sa)): < 8 µg/mL
MIC (E. faecalis (Ef)): < 8 µg/mL
MIC (A. baumannii (Ab)): < 8 µg/mL
MIC (E. coli (Ec)): < 8 µg/mL
IC50 [2]: < 0.5 µM

CC(C)(N)C(=O)N1CCN(C(=O)Nc2ccn(-c3ccc(CN[C@H]4CC[C@@H](N)CC4)cc3)c(=O)n2)CC1 [Compound 120]
IC50 [1]: > 1 µM
MIC (P. aeruginosa (Pa)): > 32 µg/mL
MIC (S. aureus (Sa)): < 8 µg/mL
MIC (E. faecalis (Ef)): 8 to 32 µg/mL
MIC (A. baumannii (Ab)): > 32 µg/mL
MIC (E. coli (Ec)): < 8 µg/mL
IC50 [2]: < 0.5 µM

CN(Cc1ccc(-n2ccc(NC(=O)N3CCN(C(=O)C(C)(C)N)CC3)nc2=O)cc1)[C@H]1CC[C@@H](N)CC1 [Compound 121]
IC50 [1]: > 1 µM
MIC (P. aeruginosa (Pa)): > 32 µg/mL
MIC (S. aureus (Sa)): < 8 µg/mL
MIC (E. faecalis (Ef)): < 8 µg/mL
MIC (A. baumannii (Ab)): > 32 µg/mL
MIC (E. coli (Ec)): < 8 µg/mL
IC50 [2]: < 0.5 µM

CCN(Cc1ccc(-n2ccc(NC(=O)N3CCN(C(=O)C(C)(C)N)CC3)nc2=O)cc1)[C@H]1CC[C@@H](N)CC1 [Compound 122]
IC50 [1]: > 1 µM
MIC (P. aeruginosa (Pa)): > 32 µg/mL
MIC (S. aureus (Sa)): < 8 µg/mL
MIC (E. faecalis (Ef)): < 8 µg/mL
MIC (A. baumannii (Ab)): > 32 µg/mL
MIC (E. coli (Ec)): < 8 µg/mL
IC50 [2]: < 0.5 µM

CC(C)(N)C(=O)N1CCN(C(=O)Nc2ccn(-c3ccc(CN[C@H]4CC[C@H](N)C4)cc3)c(=O)n2)CC1 [Compound 123]
IC50 [1]: > 1 µM
MIC (P. aeruginosa (Pa)): > 32 µg/mL
MIC (S. aureus (Sa)): < 8 µg/mL
MIC (E. faecalis (Ef)): > 32 µg/mL
MIC (A. baumannii (Ab)): > 32 µg/mL
MIC (E. coli (Ec)): < 8 µg/mL
IC50 [2]: < 0.5 µM

CN(Cc1ccc(-n2ccc(NC(=O)N3CCN(C(=O)C(C)(C)N)CC3)nc2=O)cc1)[C@H]1CC[C@H](N)C1 [Compound 124]
IC50 [1]: > 1 µM
MIC (P. aeruginosa (Pa)): > 32 µg/mL
MIC (S. aureus (Sa)): < 8 µg/mL
MIC (E. faecalis (Ef)): < 8 µg/mL
MIC (A. baumannii (Ab)): > 32 µg/mL
MIC (E. coli (Ec)): < 8 µg/mL
IC50 [2]: < 0.5 µM

CCN(Cc1ccc(-n2ccc(NC(=O)N3CCN(C(=O)C(C)(C)N)CC3)nc2=O)cc1)[C@H]1CC[C@H](N)C1 [Compound 125]
IC50 [1]: > 1 µM
MIC (P. aeruginosa (Pa)): > 32 µg/mL
MIC (S. aureus (Sa)): < 8 µg/mL
MIC (E. faecalis (Ef)): < 8 µg/mL
MIC (A. baumannii (Ab)): > 32 µg/mL
MIC (E. coli (Ec)): < 8 µg/mL
IC50 [2]: < 0.5 µM

CC(C)(N)C(=O)N1CCN(C(=O)Nc2ccn(-c3ccc(CNCC4CC(N)C4)cc3)c(=O)n2)CC1 (stereo not drawn) [Compound 126]
IC50 [1]: > 1 µM
MIC (P. aeruginosa (Pa)): > 32 µg/mL
MIC (S. aureus (Sa)): 8 to 32 µg/mL
MIC (E. faecalis (Ef)): > 32 µg/mL
MIC (A. baumannii (Ab)): > 32 µg/mL
MIC (E. coli (Ec)): < 8 µg/mL
IC50 [2]: < 0.5 µM

CN(Cc1ccc(-n2ccc(NC(=O)N3CCN(C(=O)C(C)(C)N)CC3)nc2=O)cc1)CC1CC(N)C1 (stereo not drawn) [Compound 127]
IC50 [1]: > 1 µM
MIC (P. aeruginosa (Pa)): > 32 µg/mL
MIC (S. aureus (Sa)): < 8 µg/mL
MIC (E. faecalis (Ef)): < 8 µg/mL
MIC (A. baumannii (Ab)): > 32 µg/mL
MIC (E. coli (Ec)): < 8 µg/mL
IC50 [2]: < 0.5 µM

CCN(Cc1ccc(-n2ccc(NC(=O)N3CCN(C(=O)C(C)(C)N)CC3)nc2=O)cc1)CC1CC(N)C1 (stereo not drawn) [Compound 128]
IC50 [1]: > 1 µM
MIC (P. aeruginosa (Pa)): 8 to 32 µg/mL
MIC (S. aureus (Sa)): < 8 µg/mL
MIC (E. faecalis (Ef)): < 8 µg/mL
MIC (A. baumannii (Ab)): > 32 µg/mL
MIC (E. coli (Ec)): < 8 µg/mL
IC50 [2]: < 0.5 µM

CC(C)CN(Cc1ccc(-n2ccc(NC(=O)N3CCN(C(=O)C(C)(C)N)CC3)nc2=O)cc1)[C@H]1CC[C@H](N)CC1 [Compound 129]
IC50 [1]: > 1 µM
MIC (P. aeruginosa (Pa)): 8 to 32 µg/mL
MIC (S. aureus (Sa)): < 8 µg/mL
MIC (E. faecalis (Ef)): < 8 µg/mL
MIC (A. baumannii (Ab)): < 8 µg/mL
MIC (E. coli (Ec)): < 8 µg/mL
IC50 [2]: < 0.5 µM

CC(C)(N)C(=O)N1CCN(C(=O)Nc2ccn(-c3ccc(CN(CC4CC4)[C@H]4CC[C@H](N)CC4)cc3)c(=O)n2)CC1 [Compound 130]
IC50 [1]: > 1 µM
MIC (P. aeruginosa (Pa)): 8 to 32 µg/mL
MIC (S. aureus (Sa)): < 8 µg/mL
MIC (E. faecalis (Ef)): < 8 µg/mL
MIC (A. baumannii (Ab)): 8 to 32 µg/mL
MIC (E. coli (Ec)): < 8 µg/mL
IC50 [2]: < 0.5 µM

CCCN(Cc1ccc(-n2ccc(NC(=O)N3CCN(C(=O)C(C)(C)N)CC3)nc2=O)cc1)[C@H]1CC[C@H](N)CC1 [Compound 131]
IC50 [1]: > 1 µM
MIC (P. aeruginosa (Pa)): 8 to 32 µg/mL
MIC (S. aureus (Sa)): < 8 µg/mL
MIC (E. faecalis (Ef)): < 8 µg/mL
MIC (A. baumannii (Ab)): < 8 µg/mL
MIC (E. coli (Ec)): < 8 µg/mL
IC50 [2]: < 0.5 µM

CC(C)(N)C(=O)N1CCN(C(=O)Nc2ccn(-c3ccc(CN(CCO)[C@H]4CC[C@H](N)CC4)cc3)c(=O)n2)CC1 [Compound 132]
IC50 [1]: > 1 µM
MIC (P. aeruginosa (Pa)): > 32 µg/mL
MIC (S. aureus (Sa)): < 8 µg/mL
MIC (E. faecalis (Ef)): > 32 µg/mL
MIC (A. baumannii (Ab)): > 32 µg/mL
MIC (E. coli (Ec)): < 8 µg/mL
IC50 [2]: < 0.5 µM

C[C@](N)(CO)C(=O)N1CCN(C(=O)Nc2ccn(-c3ccc(CN4CC(CCN)C4)cc3)c(=O)n2)CC1 [Compound 136]
IC50 [1]: > 1 µM
MIC (P. aeruginosa (Pa)): > 32 µg/mL
MIC (S. aureus (Sa)): 8 to 32 µg/mL
MIC (E. faecalis (Ef)): 8 to 32 µg/mL
MIC (A. baumannii (Ab)): > 32 µg/mL
MIC (E. coli (Ec)): 8 to 32 µg/mL
IC50 [2]: < 0.5 µM

CC(C)(N)C(=O)N1CCN(C(=O)Nc2ccn(-c3ccc(CN4CC(O)(CN)C4)cc3)c(=O)n2)CC1 [Compound 137]
IC50 [1]: > 1 µM
MIC (P. aeruginosa (Pa)): > 32 µg/mL
MIC (S. aureus (Sa)): 8 to 32 µg/mL
MIC (E. faecalis (Ef)): > 32 µg/mL
MIC (A. baumannii (Ab)): > 32 µg/mL
MIC (E. coli (Ec)): < 8 µg/mL
IC50 [2]: < 0.5 µM

CC(C)(N)C(=O)N1CCN(C(=O)Nc2ccn(-c3ccc(CN(CCF)[C@H]4CC[C@H](N)CC4)cc3)c(=O)n2)CC1 [Compound 138]
IC50 [1]: > 1 µM
MIC (P. aeruginosa (Pa)): > 32 µg/mL
MIC (S. aureus (Sa)): < 8 µg/mL
MIC (E. faecalis (Ef)): > 32 µg/mL
MIC (A. baumannii (Ab)): > 32 µg/mL
MIC (E. coli (Ec)): < 8 µg/mL
IC50 [2]: 0.5 to 1 µM

Cc1cc(-n2ccc(NC(=O)N3CCN(C(=O)[C@@](C)(N)CO)CC3)nc2=O)ccc1CCN1CCCC(N)CC1 (stereo partly drawn) [Compound 139]
IC50 [1]: > 1 µM
MIC (P. aeruginosa (Pa)): 8 to 32 µg/mL
MIC (S. aureus (Sa)): < 8 µg/mL
MIC (E. faecalis (Ef)): < 8 µg/mL
MIC (A. baumannii (Ab)): > 32 µg/mL
MIC (E. coli (Ec)): < 8 µg/mL
IC50 [2]: < 0.5 µM
